Earlier results, collected in patent US5360794A, “Disubstituted and deoxy disubstituted derivatives of α-D-mannofuranosides and β-L-gulofuranosides having anti-inflammatory and anti-proliferative activity” (Medicarb Inc., priority 1992, dated 1994).
Counter-ions that a name gives are not always drawn.

Test system: rheumatoid arthritis
Conditions: late Phase III clinical trials; cited from earlier work

CN(C)CCCO[C@@H]1[C@H]2OC(C)(C)O[C@H]2O[C@@H]1[C@H](O)CO [Amiprilose HCl, 1,2-O-isopropylidene-3-O-3'-(N', N'-dimethylaminopropyl)-α-D-glucofuranose]
clinical utility in rheumatoid arthritis: demonstrated utility in managing the signs and symptoms of rheumatoid arthritis
